The source of these data is publication PMC8795677 (Frontiers in Chemistry, 2022).

pEC50: −log10 of the molar value. Entries after “also recorded” stand apart in the source; their conditions may differ.

The target of one assay is T1, WT mGlu1 (Rattus norvegicus, UniProt P23385).
T1 construct: expressed in transfected cells; host or cells: HEK293
Description: Fluorescent Ca2+ imaging (Fura-2) in transfected HEK293 cells, WT mGlu1. The class given is cell-based. The following applies: at the concentration of the mutant's EC50 (1.5 µM Cu^2+; 0.44 µM Zn^2+).

The target in assay [1] is T2, mGlu1 Q73H/D324H/E325C mutant (Rattus norvegicus, UniProt P23385, D324H/E325C/Q73H).
T2 construct: expressed in transfected cells; host or cells: HEK293
As to the kind of experiment: Fluorescent Ca2+ imaging in transfected HEK293 cells, Q73H/D324H/E325C mutant. The class given is cell-based. The following applies: for activation of Q73H/D324H/E325C mutant (Δratio): primary screening, 3 μM metal ion or complex.

The target of a further assay is T3, mGlu1 E325C mutant (Rattus norvegicus, UniProt P23385, E325C).
T3 construct: expressed in transfected cells; host or cells: HEK293
As to the kind of experiment: Fluorescent Ca2+ imaging in transfected HEK293 cells, E325C mutant. The class given is cell-based. The following applies: for activation / metal selectivity of E325C mutant (Δratio): heat map: 3 μM metal ion or complex.

The target of assay [2] is T4, mGlu1 V405H/D322C/D324H (HCH) mutant (Rattus norvegicus, UniProt P23385, D322C/D324H/V405H).
T4 construct: expressed in transfected cells; host or cells: HEK293
As to the kind of experiment: Fluorescent Ca2+ imaging in transfected HEK293 cells, HCH mutant. It is filed as cell-based. The following applies: for activation of HCH mutant (Δratio): secondary screening, 3 μM metal ion or complex.

The target of assay [3] is T5, mGlu1(N264H) mutant (Rattus norvegicus, UniProt P23385, N264H).
T5 construct: expressed in transfected cells; host or cells: HEK293
As to the kind of experiment: Fluorescent Ca2+ imaging in transfected HEK293 cells, N264H mutant. It is filed as cell-based. The following applies: for activation of N264H mutant (Δratio): heat map: 3 μM metal ion or complex.

Assay [4] concerns the target T6, mGlu1 V405C/D322H/D324H (CHH) mutant (Rattus norvegicus, UniProt P23385, D322H/D324H/V405C).
T6 construct: expressed in transfected cells; host or cells: HEK293
As to the kind of experiment: Fluorescent Ca2+ imaging in transfected HEK293 cells, CHH mutant. The class given is cell-based. The conditions noted are these: secondary screening, 3 μM metal ion or complex.

For another assay, the target named is T7, mGlu1 Q73H/D324H mutant (Rattus norvegicus, UniProt P23385, D324H/Q73H).
T7 construct: expressed in transfected cells; host or cells: HEK293
As to the kind of experiment: Fluorescent Ca2+ imaging in transfected HEK293 cells, Q73H/D324H mutant. The class given is cell-based. The conditions noted are these: 1 μM CuCl2.

For a further assay, the target named is T8, mGlu1 Q73H/E325C mutant (Rattus norvegicus, UniProt P23385, E325C/Q73H).
T8 construct: expressed in transfected cells; host or cells: HEK293
Description: Fluorescent Ca2+ imaging in transfected HEK293 cells, Q73H/E325C mutant. It is filed as cell-based. The following applies: 1 μM CuCl2.

In a further assay the target is T9, mGlu1 D324H/E325C mutant (Rattus norvegicus, UniProt P23385, D324H/E325C).
T9 construct: expressed in transfected cells; host or cells: HEK293
Description: Fluorescent Ca2+ imaging in transfected HEK293 cells, D324H/E325C mutant. It is filed as cell-based. The conditions noted are these: 1 μM CuCl2.

The target of a further assay is T10, mGlu1 H55F/E325C mutant (Rattus norvegicus, UniProt P23385, E325C/H55F).
T10 construct: expressed in transfected cells; host or cells: HEK293
As to the kind of experiment: Fluorescent Ca2+ imaging in transfected HEK293 cells, H55F/E325C mutant. It is filed as cell-based. The following applies: 1 μM CuCl2, compared with E325C.

In the next assay the target is T11, mGlu1 E72A/E325C mutant (Rattus norvegicus, UniProt P23385, E325C/E72A).
T11 construct: expressed in transfected cells; host or cells: HEK293
Description: Fluorescent Ca2+ imaging in transfected HEK293 cells, E72A/E325C mutant. The class given is cell-based. The conditions noted are these: 1 μM CuCl2, compared with E325C.

For the next assay, the target named is T12, mGlu1 Q73A/E325C mutant (Rattus norvegicus, UniProt P23385, E325C/Q73A).
T12 construct: expressed in transfected cells; host or cells: HEK293
As to the kind of experiment: Fluorescent Ca2+ imaging in transfected HEK293 cells, Q73A/E325C mutant. The class given is cell-based. The following applies: 1 μM CuCl2, compared with E325C.

Assay [5] deals with T5, mGlu1(N264H) mutant. On the set-up: method as in Ojima et al., 2021. The conditions noted are these: previously reported; ref Ojima et al., 2021; cited from earlier work.
The target in the next assay is T13, mGlu1 V405H/D322C mutant (Rattus norvegicus, UniProt P23385, D322C/V405H).
T13 construct: expressed in transfected cells; host or cells: HEK293
As to the kind of experiment: Fluorescent Ca2+ imaging in transfected HEK293 cells, V405H/D322C mutant. The class given is cell-based. The following applies: compared with HCH mutant.

In another assay the target is T14, mGlu1 V405H/D324H mutant (Rattus norvegicus, UniProt P23385, D324H/V405H).
T14 construct: expressed in transfected cells; host or cells: HEK293
As to the kind of experiment: Fluorescent Ca2+ imaging in transfected HEK293 cells, V405H/D324H mutant. It is filed as cell-based. The following applies: compared with HCH mutant.

The next assay deals with T15, mGlu1 D322C/D324H mutant (Rattus norvegicus, UniProt P23385, D322C/D324H).
T15 construct: expressed in transfected cells; host or cells: HEK293
Description: Fluorescent Ca2+ imaging in transfected HEK293 cells, D322C/D324H mutant. It is filed as cell-based. The following applies: compared with HCH mutant.

Assay [6] has as its target T16, mGlu1 H55/P58H/N264C mutant (Rattus norvegicus, UniProt P23385, N264C/P58H).
T16 construct: expressed in transfected cells; host or cells: HEK293
As to the kind of experiment: Fluorescent Ca2+ imaging in transfected HEK293 cells, H55/P58H/N264C mutant. The class given is cell-based. The following applies: primary screening, 3 μM metal ion or complex.

Assay [7] addresses T17, mGlu1 V405H/D322H/D324C (HHC) mutant (Rattus norvegicus, UniProt P23385, D322H/D324C/V405H).
T17 construct: expressed in transfected cells; host or cells: HEK293
Description: Fluorescent Ca2+ imaging in transfected HEK293 cells, HHC mutant. It is filed as cell-based. The conditions noted are these: primary screening, 3 μM metal ion or complex.

T2 sequence (P23385 19-1199 Q73H/D324H/E325C): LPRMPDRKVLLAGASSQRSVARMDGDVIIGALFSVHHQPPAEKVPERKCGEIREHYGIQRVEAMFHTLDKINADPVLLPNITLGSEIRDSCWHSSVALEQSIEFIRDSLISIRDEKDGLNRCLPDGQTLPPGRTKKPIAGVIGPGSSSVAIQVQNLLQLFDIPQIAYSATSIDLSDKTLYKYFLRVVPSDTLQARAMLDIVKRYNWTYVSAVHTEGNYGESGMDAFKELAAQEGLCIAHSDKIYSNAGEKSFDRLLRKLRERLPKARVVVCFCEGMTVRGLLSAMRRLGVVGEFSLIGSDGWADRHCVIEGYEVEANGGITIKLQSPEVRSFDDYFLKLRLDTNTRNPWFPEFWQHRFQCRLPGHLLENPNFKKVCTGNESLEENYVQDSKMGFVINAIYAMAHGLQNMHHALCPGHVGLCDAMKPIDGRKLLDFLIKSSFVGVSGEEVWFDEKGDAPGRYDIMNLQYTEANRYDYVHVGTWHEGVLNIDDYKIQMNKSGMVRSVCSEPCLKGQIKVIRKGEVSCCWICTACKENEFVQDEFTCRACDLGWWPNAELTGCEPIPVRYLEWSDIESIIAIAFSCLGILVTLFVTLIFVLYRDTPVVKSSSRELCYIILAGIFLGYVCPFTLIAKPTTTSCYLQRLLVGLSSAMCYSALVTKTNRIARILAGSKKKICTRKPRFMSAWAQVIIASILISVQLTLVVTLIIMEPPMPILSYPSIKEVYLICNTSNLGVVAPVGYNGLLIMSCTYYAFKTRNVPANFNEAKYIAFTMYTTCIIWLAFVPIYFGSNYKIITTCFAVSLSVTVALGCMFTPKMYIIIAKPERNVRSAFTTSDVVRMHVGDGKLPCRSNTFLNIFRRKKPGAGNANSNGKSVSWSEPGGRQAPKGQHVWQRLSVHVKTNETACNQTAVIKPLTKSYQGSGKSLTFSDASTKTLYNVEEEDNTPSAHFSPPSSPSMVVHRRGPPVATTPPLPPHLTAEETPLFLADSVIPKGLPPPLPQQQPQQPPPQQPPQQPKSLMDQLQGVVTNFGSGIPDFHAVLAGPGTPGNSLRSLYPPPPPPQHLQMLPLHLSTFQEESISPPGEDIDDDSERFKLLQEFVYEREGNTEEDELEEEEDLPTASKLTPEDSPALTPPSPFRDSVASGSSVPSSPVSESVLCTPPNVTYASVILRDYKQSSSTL
T4 sequence (P23385 19-1199 D322C/D324H/V405H): as the sequence (P23385 19-1199 Q73H/D324H/E325C) above, with H55Q, D304C, C307E, V387H counted along it
T6 sequence (P23385 19-1199 D322H/D324H/V405C): as the sequence (P23385 19-1199 Q73H/D324H/E325C) above, with H55Q, D304H, C307E, V387C counted along it
T3 sequence (P23385 19-1199 E325C): as the sequence (P23385 19-1199 Q73H/D324H/E325C) above, with H55Q, H306D counted along it
T17 sequence (P23385 19-1199 D322H/D324C/V405H): as the sequence (P23385 19-1199 Q73H/D324H/E325C) above, with H55Q, D304H, H306C, C307E, V387H counted along it
T5 sequence (P23385 19-1199 N264H): as the sequence (P23385 19-1199 Q73H/D324H/E325C) above, with H55Q, N246H, H306D, C307E counted along it
T1 sequence (P23385 19-1199): as the sequence (P23385 19-1199 Q73H/D324H/E325C) above, with H55Q, H306D, C307E counted along it
T7 sequence (P23385 19-1199 Q73H/D324H): as the sequence (P23385 19-1199 Q73H/D324H/E325C) above, with C307E counted along it
T16 sequence (P23385 19-1199 P58H/N264C): as the sequence (P23385 19-1199 Q73H/D324H/E325C) above, with P40H, H55Q, N246C, H306D, C307E counted along it
T13 sequence (P23385 19-1199 D322C/V405H): as the sequence (P23385 19-1199 Q73H/D324H/E325C) above, with H55Q, D304C, H306D, C307E, V387H counted along it
T11 sequence (P23385 19-1199 E72A/E325C): as the sequence (P23385 19-1199 Q73H/D324H/E325C) above, with E54A, H55Q, H306D counted along it
T15 sequence (P23385 19-1199 D322C/D324H): as the sequence (P23385 19-1199 Q73H/D324H/E325C) above, with H55Q, D304C, C307E counted along it
T9 sequence (P23385 19-1199 D324H/E325C): as the sequence (P23385 19-1199 Q73H/D324H/E325C) above, with H55Q counted along it
T14 sequence (P23385 19-1199 D324H/V405H): as the sequence (P23385 19-1199 Q73H/D324H/E325C) above, with H55Q, C307E, V387H counted along it
T8 sequence (P23385 19-1199 Q73H/E325C): as the sequence (P23385 19-1199 Q73H/D324H/E325C) above, with H306D counted along it
T12 sequence (P23385 19-1199 Q73A/E325C): as the sequence (P23385 19-1199 Q73H/D324H/E325C) above, with H55A, H306D counted along it
T10 sequence (P23385 19-1199 H55F/E325C): as the sequence (P23385 19-1199 Q73H/D324H/E325C) above, with H37F, H55Q, H306D counted along it

For `[Cu+2]` [Cu^2+, CuCl2], the “activation of WT mGlu1 in dose dependency” value on WT mGlu1 was “not activated”. The pEC50 was 5.82 in assay [1] (HEK293 cells, Q73H/D324H/E325C mutant, dose dependency, read-out: EC50 of activation (Δratio, [Ca2+]i)) and 6.66 at mGlu1 E325C mutant (HEK293 cells, E325C mutant, dose dependency, read-out: EC50 of activation (Δratio, [Ca2+]i)). Also, in assay [1], the “activation of Q73H/D324H/E325C mutant (Δratio)” value was “strongly activated”. In addition, the “Cu^2+-induced response (Δratio) of E325C single mutant” value at mGlu1 E325C mutant (1 μM CuCl2) was “maintained”. Also, the “activation of E325C mutant by Cu^2+ in the co-presence of Pd (bpy)” value on mGlu1 E325C mutant ([CuCl2] = 1 μM, [Pd(bpy)] = 3 μM) was “impaired”. Besides, the “activation / metal selectivity of E325C mutant (Δratio)” value on mGlu1 E325C mutant is “high selectivity”. Besides, the “cell-specific activation of E325C-expressing cells in mixed culture” value at mGlu1 E325C mutant (three HEK293 cell types on one coverslip, sequential perfusion 60 s, 1 μM CuCl2) is listed as “selectively activated”. Further, the “activation of HCH mutant (Δratio)” value in assay [2] was “not activated at all; also recorded: insensitive”. The “activation of N264H mutant (Δratio)” value at mGlu1(N264H) mutant [3] is “not activated”. Besides, the “activation of CHH mutant (Δratio)” value in [4] is recorded as “strongly activated”. Further, the “Cu^2+-induced response (Δratio) of Q73H/D324H mutant” value on mGlu1 Q73H/D324H mutant is listed as “loss in sensitivity”. On mGlu1 Q73H/E325C mutant, the “Cu^2+-induced response (Δratio) of Q73H/E325C mutant” value is “prominent Cu^2+-induced responses”. The “Cu^2+-induced response (Δratio) of D324H/E325C mutant” value at mGlu1 D324H/E325C mutant is given as “prominent Cu^2+-induced responses”. The “Cu^2+-induced response (Δratio) of H55F/E325C mutant” value on mGlu1 H55F/E325C mutant was “drastically decreased”. The “Cu^2+-induced response (Δratio) of E72A/E325C mutant” value at mGlu1 E72A/E325C mutant is recorded as “drastically decreased”. Also, the “sensitivity to Cu^2+ (Δratio) of Q73A/E325C mutant” value at mGlu1 Q73A/E325C mutant is listed as “slightly affected”. The “activation of mGlu1(N264H) mutant” value at mGlu1(N264H) mutant [5] was “failed to activate”.
Take `[Zn+2]` [Zn^2+, ZnCl2]: the “activation of WT mGlu1 in dose dependency” value at WT mGlu1 is recorded as “not activated at all”. Also, the “activation / metal selectivity of E325C mutant (Δratio)” value at mGlu1 E325C mutant is reported as “not activated”. Besides, the pEC50 in [2] (HEK293 cells, HCH mutant, dose dependency, read-out: EC50 of activation (Δratio, [Ca2+]i)) is 6.36. Further, in [2] ([ZnCl2] = 3 μM, [CuCl2] = 1 μM), the “activation of HCH mutant by Zn^2+ in the co-presence of Cu^2+” value is “impaired”. The “activation of HCH mutant (Δratio)” value in [2] was “activated strongly”. Also, in [2] (three HEK293 cell types on one coverslip, sequential perfusion 60 s, 3 μM ZnCl2), the “cell-specific activation of HCH-expressing cells in mixed culture” value is on record as “selectively activated”. Moreover, on mGlu1(N264H) mutant [3], the “activation of N264H mutant (Δratio)” value is “not activated”. The “activation of CHH mutant (Δratio)” value in [4] is listed as “strongly activated”. The “Zn^2+-induced response (Δratio) of V405H/D322C mutant” value on mGlu1 V405H/D322C mutant was “significantly impaired”. The “Zn^2+-induced response (Δratio) of V405H/D324H mutant” value at mGlu1 V405H/D324H mutant is on record as “significantly impaired”. At mGlu1 D322C/D324H mutant, the “Zn^2+-induced response (Δratio) of D322C/D324H mutant” value is recorded as “significantly impaired”. The “activation of mGlu1(N264H) mutant” value at mGlu1(N264H) mutant [5] is reported as “failed to activate”.
Regarding `[Cd+2]` [Cd^2+], in assay [2], the “activation of HCH mutant (Δratio)” value is “moderately”. The “activation of mGlu1(N264H) mutant” value at mGlu1(N264H) mutant [5] is “failed to activate”.
On to Pd-2,2′-bipyridine [Pd (bpy)], for which the “activation of Q73H/D324H/E325C mutant (Δratio)” value in assay [1] was “not activated”. Also, on mGlu1 E325C mutant, the “activation / metal selectivity of E325C mutant (Δratio)” value is “not activated”. Moreover, the “activation of HCH mutant (Δratio)” value in assay [2] is “not activated at all; also recorded: insensitive”. In addition, the “activation of N264H mutant by Pd(bpy) in the co-presence of Cu2+ or Zn2+” value at mGlu1(N264H) mutant [3] ([Pd(bpy)] = 3 μM, [CuCl2] = 1 μM, [ZnCl2] = 3 μM) was “did not affect”. The “activation of N264H mutant (Δratio)” value on mGlu1(N264H) mutant [3] is “selectively activated”. Also, the “cell-specific activation of N264H-expressing cells in mixed culture” value on mGlu1(N264H) mutant [3] (three HEK293 cell types on one coverslip, sequential perfusion 60 s, 3 μM Pd (bpy)) is recorded as “selectively activated”. Further, the “activation of H55/P58H/N264C mutant (Δratio)” value in assay [6] is listed as “activated”. Further, the “activation of V405H/D322H/D324C (HHC) mutant (Δratio)” value in assay [7] is reported as “activated”. Also, on mGlu1(N264H) mutant [5], the “activation of mGlu1(N264H) mutant” value was “selective activation”.
As for `[Pd+2]` [Pd^2+], in assay [4], the “activation of CHH mutant (Δratio)” value is “strongly activated”. The “activation of mGlu1(N264H) mutant” value at mGlu1(N264H) mutant [5] is recorded as “failed to activate”.
For `[Ni+2]` [Ni^2+], the “activation of Q73H/D324H/E325C mutant (Δratio)” value in assay [1] is “moderate sensitivity”. Also, the “activation of HCH mutant (Δratio)” value in assay [2] was “moderately”. The “activation of V405H/D322H/D324C (HHC) mutant (Δratio)” value in assay [7] was “showed sensitivity; also recorded: activated”. Also, in assay [4], the “activation of CHH mutant (Δratio)” value is listed as “strongly activated”. Moreover, the “activation of mGlu1(N264H) mutant” value on mGlu1(N264H) mutant [5] is listed as “failed to activate”.
